Assay results reported in PubChem BioAssay AID463199 (Broad Institute, 2010).
The source made the active and inactive calls.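 The calls were made as follows: active = AC50, the dose giving half-maximal effect, exceeds a fixed cutoff for a compound that rescues yeast growth under heat; inactive = the rest, inconclusive results apart.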

The molecules below were run on S. cerevisiae Burl-1 ts mutant growth, BacTiter-Glo, 38.5C 24 h (assay: growth induction of Burl-1 ts yeast mutant, dose response, counter-screen for SUMOylation pathway inhibitor project, whole organism, S. cerevisiae, luminescence (AID 463199)).

Structure (SMILES)	AC50
O=C(c1cccs1)N(C(=O)c1cccs1)c1ccc(Br)cn1	> 42 µM (inactive)
C/C=C/C(=O)N1c2ccc(C)cc2C(C)=CC1(C)C	> 42 µM (inactive)
COc1cccc(OC)c1C(=O)N1CCN(Cc2ccccc2C)CC1	> 42 µM (inactive)
COc1ccc(-n2c(SCC(=O)NCC3CCCO3)nc3c(c2=O)SCC3)cc1OC (stereo not given)	> 42 µM (inactive)
CC(C)(C)c1cc(NCCCn2ccnc2)n2ncc(-c3ccc(Cl)cc3)c2n1	> 42 µM (inactive)
CN(Cc1cccnc1)Cc1cn[nH]c1-c1ccc(-c2ccccc2)cc1	> 42 µM (inactive)
CSc1cc(C)c(OCC(=O)Nc2c(C)nn(C)c2C)c(C)c1	> 42 µM (inactive)
O=C(Cc1cccs1)Nc1cccc(-c2nnc(-c3ccco3)o2)c1	> 42 µM (inactive)
N#Cc1ccc2[nH]c(CO)c(-c3ccccc3)c2c1	> 42 µM (inactive)
O=c1cc(-c2ccccc2)nc(N2CCN(Cc3ccccc3)CC2)[nH]1	> 42 µM (inactive)
COc1ccc(CN(C)C(=O)c2sccc2-c2ccccc2)c(OC)c1	> 42 µM (inactive)
COc1ccc(C(=O)CC(=O)C(=O)Nc2ccc(C)c(C)c2)cc1	> 42 µM (inactive)
O=C(OCc1nc2ccsc2c(=O)[nH]1)c1ccco1	> 42 µM (inactive)
COc1cccc(NC(=O)CN(C)C(=O)c2ccccc2OCc2c(C)noc2C)c1	> 42 µM (inactive)
COc1cc2c(cc1OC)C(c1ccccc1C)CC(=O)N2 (stereo not given)	> 42 µM (inactive)
CCn1nnc(-c2ccccc2NC(=O)c2cnccn2)n1	> 42 µM (inactive)
O=c1c2ccccc2ncn1Cc1ccc(Cl)cc1	> 42 µM (inactive)
CCc1cc(/C(Cc2ccccn2)=N\O)c(O)cc1O	> 42 µM (inactive)
Nc1ccnc(=O)[nH]1	> 42 µM (inactive)
CCN(CC)C(=O)Cn1cc(S(=O)(=O)CC(=O)NCCc2ccc(OC)c(OC)c2)c2ccccc21	> 42 µM (inactive)
CC(C)CCCN1CCN=C1Nc1ccccc1	> 42 µM (inactive)
CCOC(=O)C1=C(C)NC(=O)CC1c1cc2c(cc1[N+](=O)[O-])OCO2 (stereo not given)	22.3 µM
O=C(Nc1nnc(-c2ccco2)o1)c1ccc(S(=O)(=O)N2CCCC2)cc1	> 42 µM (inactive)
COc1cc(OC)cc(OC(=O)c2ccc3c(=O)n4c(nc3c2)CCC4)c1	> 42 µM (inactive)
COc1ccc(CCN2CC(C(=O)N(C)CC(=O)Nc3cccc(F)c3)CC2=O)cc1OC (stereo not given)	> 42 µM (inactive)

Structure (SMILES)	AC50
O=S(=O)(O)c1ccc(N=NNc2ccc(Br)cc2)cc1	> 42 µM (inactive)
O=C(NCc1nc(-c2ccccc2)no1)c1cccs1	> 42 µM (inactive)
COc1cc2c(cc1OC)CN(S(=O)(=O)c1cccc(F)c1)CC2	> 42 µM (inactive)
CCOC(=O)C1CCN(C(=O)c2sccc2Cl)CC1	> 42 µM (inactive)
Cc1cc(C)n(CCCNC(=O)CN(C)S(=O)(=O)c2ccc(Cl)cc2)n1	> 42 µM (inactive)
Cc1cc(C)n(-c2nc3ccccc3nc2N2CCN(C(=O)c3ccccc3)CC2)n1	> 42 µM (inactive)
O=C(CCN1CCc2ccccc2C1)Nc1ccc2c(c1)OCO2	> 42 µM (inactive)
CCC(=O)N1c2ccc(S(=O)(=O)N3CCN(c4ccc([N+](=O)[O-])cc4)CC3)cc2CC1C (stereo not given)	> 42 µM (inactive)
CCN(CC(=O)N1CCCCCC1)S(=O)(=O)c1ccc(Cl)cc1	> 42 µM (inactive)
COc1ccc(NS(=O)(=O)c2cccc(C(=O)NCCCn3ccnc3)c2)cc1	> 42 µM (inactive)
O=C(N1CCOCC1)C1(S(=O)(=O)c2ccccc2)CC=CC1	> 42 µM (inactive)
Cc1csc(=O)n1CC(=O)OCC(=O)Nc1cc([N+](=O)[O-])ccc1Cl	> 42 µM (inactive)
COc1ccc(C2C(C(=O)Nc3cc(OC)c(OC)c(OC)c3)c3ccccc3C(=O)N2C)cc1 (stereo not given)	> 42 µM (inactive)
Cc1cccc(N(C(=O)c2ccc(CN3CCOCC3)o2)C(C(=O)NC2CCCCC2)c2ccc(F)cc2)c1 (stereo not given)	> 42 µM (inactive)
Cc1ccc(C(=O)O)cc1[N+](=O)[O-]	> 42 µM (inactive)
CCOC(=O)c1cc(C#N)c(Oc2ccccc2OC)nc1-c1ccccc1	> 42 µM (inactive)
O=C(Nc1ccc2c(c1)oc1ccccc12)C1CC1	> 42 µM (inactive)
CC(=O)c1cc(C)ccc1OC(=O)c1ccco1	> 42 µM (inactive)
CCOC(=O)C1(Cc2cccc(OC)c2)CCCN(S(=O)(=O)c2cccnc2)C1 (stereo not given)	> 42 µM (inactive)
O=C(O)c1cccc(N2C(=O)C3C4C=CC(C4=C(c4ccccc4)c4ccccc4)C3C2=O)c1 (stereo not given)	> 42 µM (inactive)
CCOc1ccc(C(=O)NNC2CC(=O)N(CCc3ccccc3)C2=O)cc1OC (stereo not given)	> 42 µM (inactive)
CC(C)(C)c1ccc(C(=O)COC(=O)CN2C(=O)NC3(CCCC3)C2=O)cc1	> 42 µM (inactive)
CC(C)c1ccc(C2C(C(=O)c3ccco3)=C(O)C(=O)N2CCN2CCOCC2)cc1 (stereo not given)	> 42 µM (inactive)
CC(C)C[C@@H](CO)N1CCN(Cc2cccnc2)CCC1=O	> 42 µM (inactive)
O=c1c2ccccc2ncn1-c1ccc(Cl)cc1Cl	> 42 µM (inactive)
